Laboratory results from patent publication US7064207B2, “Androgen receptor antagonists” (Warner Lambert Company LLC, priority 2003, dated 2006).
Read-outs that look alike come from different tables or passages of the source.

Target: T1, androgen receptor (Homo sapiens, UniProt P10275)
T1 sequence (P10275 1-920 Q868H): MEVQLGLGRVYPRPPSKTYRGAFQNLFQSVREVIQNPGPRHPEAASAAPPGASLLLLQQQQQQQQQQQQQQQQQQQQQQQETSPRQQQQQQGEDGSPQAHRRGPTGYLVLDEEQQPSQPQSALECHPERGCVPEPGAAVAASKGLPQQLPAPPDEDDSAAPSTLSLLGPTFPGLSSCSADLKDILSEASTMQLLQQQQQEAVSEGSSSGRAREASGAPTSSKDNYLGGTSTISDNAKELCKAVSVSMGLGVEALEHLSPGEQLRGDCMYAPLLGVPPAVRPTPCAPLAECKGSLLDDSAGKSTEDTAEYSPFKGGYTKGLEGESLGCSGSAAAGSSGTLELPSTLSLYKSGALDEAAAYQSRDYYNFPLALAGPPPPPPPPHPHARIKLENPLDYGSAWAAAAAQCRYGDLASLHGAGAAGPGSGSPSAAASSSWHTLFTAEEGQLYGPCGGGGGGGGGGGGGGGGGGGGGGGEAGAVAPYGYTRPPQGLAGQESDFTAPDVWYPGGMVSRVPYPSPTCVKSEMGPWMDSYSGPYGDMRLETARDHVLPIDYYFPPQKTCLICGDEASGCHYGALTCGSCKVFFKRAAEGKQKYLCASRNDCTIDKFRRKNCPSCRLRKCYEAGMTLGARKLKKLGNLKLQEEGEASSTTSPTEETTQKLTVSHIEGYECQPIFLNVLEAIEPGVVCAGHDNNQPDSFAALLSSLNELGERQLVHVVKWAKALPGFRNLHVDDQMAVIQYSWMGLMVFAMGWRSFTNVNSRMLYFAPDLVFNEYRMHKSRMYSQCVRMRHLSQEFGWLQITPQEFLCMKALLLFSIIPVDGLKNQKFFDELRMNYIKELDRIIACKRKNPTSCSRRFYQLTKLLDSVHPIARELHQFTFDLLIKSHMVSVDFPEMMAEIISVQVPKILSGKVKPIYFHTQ
Assay: AR Antagonist Cell Assay (MMTV-luciferase reporter, inhibition of DHT induction)
Type: cell-based
Protocol: The compounds ability to antagonize the effects of androgen on the androgen receptor were determined in the protocol described immediately below.
Experimental Procedure for AR Antagonist Cell Assay
Cell line: MDA-MB453-MMTV clone 54–19. This cell line is a stable transfected cell line with MDA-MB453 cell background (human breast tumor cell expressing high level of androgen receptor). A MMTV minimal promoter containing ARE was first cloned in front of a firefly luciferase reporter gene. Then the cascade was cloned into transfection vector pUV120puro. Electroporation method was used for transfecting MDA-MB-453 cell. Puromycin resistant stable cell line was selected. Cell Culture Media and Reagents:
Culture medium: DMEM (high glucose, Gibco cat #: 11960-044), 10% FBS, and 1% L-glutamine
Plating medium: DMEM (phenol red free), 10% charcoal treated HyClone serum, 1% L-glutamine
Assay medium: DMEM (phenol red free), 1% charcoal treated HyClone serum, 1% L-glutamine, and 1% penicillin/streptomycin
3× luciferase buffer: 2% beta-mercaptoethanol, 0.6% ATP, 0.0135% luciferine in cell lysis buffer
• 1. Cells are maintained in culture medium, splitting cells when they reach 80–90% confluence • 2. To test compounds, 10,000 cells/well are plated to opaque 96 cell culture plate in 100 ul/well plating medium, culture for overnight at 37° C. in cell culture incubator • 3. Carefully remove plating medium, then add 80 ul/well of pre-warmed assay medium, add 10 ul/well testing compound (final concentration at 10 uM or 1 uM), incubate at 37° C. for 30 minutes • 4. Add 10 ul/well freshly prepared DHT (final concentration at 100 pM) to each well, incubate at 37° C. for 17 hr (overnight) • 5. Add 50 ul/well 3× luciferase buffer, incubate at room temperature for 5 minutes, then count on Luminometer The fold induction over background by 100 pM DHT in the absence of testing compounds is standardized as 100% and experimental result is expressed as percentage of inhibition by testing compounds.

[1] = MDA-MB453-MMTV clone 54-19 cells, 100 pM DHT, 17 hr, luciferase, read-out: Cell IC50

IC50 [1] | IC50 (per procedure of Example 57, read-out: IC50) | Compound
> 10000 nM | – | Cn1c(=O)cc(C(F)(F)F)c2cc(S(=O)(=O)N3Cc4ccccc4C3)ccc21 [Example 4, 6-(1,3-Dihydroisoindole-2-sulfonyl)-1-methyl-4-trifluoromethyl-1H-quinolin-2-one]
– | 181 nM | O=c1cc(C(F)(F)F)c2cc(S(=O)(=O)N3CCCCC3)ccc2[nH]1 [Example 2, 6-(Piperidine-1-sulfonyl)-4-trifluoromethyl-1H-quinolin-2-one]
960 nM | – | CC1CCN(S(=O)(=O)c2ccc3[nH]c(=O)cc(C(F)(F)F)c3c2)CC1 [Example 24, 6-(4-Methylpiperidine-1-sulfonyl)-4-trifluoromethyl-1H-quinolin-2-one]
> 10000 nM | – | O=c1cc(C(F)(F)F)c2cc(S(=O)(=O)N3CCN(c4ccncc4)CC3)ccc2[nH]1 [Example 27, 6-(4-Pyridin-4-ylpiperazine-1-sulfonyl)-4-trifluoromethyl-1H-quinolin-2-one]
1260 nM | – | CCOC(=O)C1CCN(S(=O)(=O)c2ccc3[nH]c(=O)cc(C(F)(F)F)c3c2)CC1 [Example 15, 1-(2-Oxo-4-trifluoromethyl-1,2-dihydroquinoline-6-sulfonyl)piperidine-4-carboxylic acid ethylester]
> 10000 nM | – | O=c1cc(C(F)(F)F)c2cc(S(=O)(=O)N3CCC(N4CCCC4)CC3)ccc2[nH]1 [Example 13, 6-(4-Pyrrolidin-1-ylpiperidine-1-sulfonyl)-4-trifluoromethyl-1H-quinolin-2-one]
> 10000 nM | – | CC1CN(S(=O)(=O)c2ccc3c(c2)c(C(F)(F)F)cc(=O)n3C)CC(C)O1 (centres unmarked) [Example 10, 6-(2,6Dimethylmorpholine-4-sulfonly)-1-methyl-4-trifluoromethyl-1H-quinolin-2-one]
> 10000 nM | – | O=c1cc(C(F)(F)F)c2cc(S(=O)(=O)N3CCN(c4cnccn4)CC3)ccc2[nH]1 [Example 42, 6-(2,3,5,6-Tetrahydro-[1,2′]bipyrazinyl-4-sulfonyl)-4-trifluoromethyl-1H-quinolin-2-one]
